Measured values published in ChEMBL document CHEMBL1146469, “Tasnemoxides A-C, new cytotoxic cyclic norsesterterpene peroxides from the Red Sea sponge Diacarnus erythraenus” (J Nat Prod, 2004).

Each compound was assayed on HT-29 (assay: Cytotoxicity against human HT-29 cells by dilution assay).
Format: functional, cell-based
For `CC1=C(CCC(C)(O)/C=C/C[C@@]2(C)CC[C@H]([C@H](C)C(=O)O)OO2)C(C)(C)CCC1` (some centres undefined) [TASNEMOXIDE A], the IC50 was greater than 1 µg/mL.
Work on `C=C(CCC1=C(C)CCCC1(C)C)C(O)CC[C@@]1(C)CC[C@H]([C@H](C)C(=O)O)OO1` (some centres undefined) [TASNEMOXIDE B] yielded an IC50 greater than 1 µg/mL.
In the case of `C=C(CCC[C@@]1(C)CC[C@H]([C@H](C)C(=O)OC)OO1)CCC1(O)C(=C)CCCC1(C)C` (some centres undefined) [TASNEMOXIDE C], the IC50 is reported as greater than 1 µg/mL.

What follows are compounds tested on P388 (assay: Cytotoxicity against mouse P388 cells by dilution assay).
Format: functional, cell-based
Compound `CC1=C(CCC(C)(O)/C=C/C[C@@]2(C)CC[C@H]([C@H](C)C(=O)O)OO2)C(C)(C)CCC1` (some centres undefined) [TASNEMOXIDE A] has an IC50 greater than 1 µg/mL.
Work on `C=C(CCC1=C(C)CCCC1(C)C)C(O)CC[C@@]1(C)CC[C@H]([C@H](C)C(=O)O)OO1` (some centres undefined) [TASNEMOXIDE B] yielded an IC50 greater than 1 µg/mL.
With `C=C(CCC[C@@]1(C)CC[C@H]([C@H](C)C(=O)OC)OO1)CCC1(O)C(=C)CCCC1(C)C` (some centres undefined) [TASNEMOXIDE C] the IC50 was greater than 1 µg/mL.

The compounds below were run on A549 (assay: Cytotoxicity against human A549 cells by dilution assay).
Format: functional, cell-based
`CC1=C(CCC(C)(O)/C=C/C[C@@]2(C)CC[C@H]([C@H](C)C(=O)O)OO2)C(C)(C)CCC1` (some centres undefined) [TASNEMOXIDE A] showed an IC50 greater than 1 µg/mL.
Compound `C=C(CCC1=C(C)CCCC1(C)C)C(O)CC[C@@]1(C)CC[C@H]([C@H](C)C(=O)O)OO1` (some centres undefined) [TASNEMOXIDE B] has an IC50 greater than 1 µg/mL.
Work on `C=C(CCC[C@@]1(C)CC[C@H]([C@H](C)C(=O)OC)OO1)CCC1(O)C(=C)CCCC1(C)C` (some centres undefined) [TASNEMOXIDE C] yielded an IC50 greater than 1 µg/mL.
